Laboratory results taken from US8076485B2, “Methylphenidate derivatives and uses of them” (priority 2005, dated 2011).

Key:
[1] = tested on: peripheral blood lymphocytes (PBL); assay: PBL proliferation assay (Promega cell titer, OD 530 nm); type: cell-based, human; settings: for proliferation of PBL stimulated with PHA (OD at 530 nm): Example 1, donor GR283; for proliferation of PBL, both unstimulated and stimulated with PHA (OD at 530 nm): Dex 10 μM
Experimental: Whole blood was drawn from GR283, a human volunteer with known allergies, into a glass vacutainer tube containing no anticoagulant. This blood was allowed to clot, and the serum was removed by centrifugation and then heat inactivated by placing it in a water bath at 56° C. for 30 minutes. Whole blood from GR283 was also drawn into a glass vacutainer tube containing heparin and used for peripheral blood lymphocytes (PBL) isolation as follows. Whole blood was layered over room temperature Histopaque 1077 solution and centrifuged at 2000 rpm for 15 minutes at room temperature. Cells at the plasma-Histopaque interface were then removed and washed with culture medium (IMDM medium with 10% heat-inactivated GR283 serum plus 1% penicillin/streptomycin) at 37° C.
Then, GR283's PBL in culture medium were added to the wells to give a final concentration of 150,000 cells per well, and the plates were incubated at 37° C., 5% CO2 for 24 hours. After this incubation, phytohemagglutinin (PHA) in culture medium was added to give final concentrations of 2 μg/ml, 5 μg/ml or 20 μg/ml, final total volume of 200 μl/well, and the cells were incubated for an additional 72 hours at 37° C., 5% CO2. All cultures were performed in triplicate.
Cell proliferation was assayed by adding 20 μl of Promega cell titer solution to each well and incubating the plate for an additional 4 hours. Promega cell titer solution is a solution containing a tetrazolium dye that is reduced by living cells to a formazan dye, and this reduction is proportional to the number of living cells present in the well. After the 4-hour incubation, the optical density (OD) at 530 nm of each well was measured. The OD at 530 nm for blank wells containing no cells was subtracted from the OD of the experimental wells.
Then, GR467's PBL in culture medium were added to the wells to give a final concentration of 150,000 cells per well, and the plates were incubated at 37° C., 5% CO2 for 24 hours. After this incubation, PHA was added to give a final concentration of 2 μg/ml, final total volume of 200 μl/well, and the cells were incubated for an additional 72 hours at 37° C., 5% CO2. All cultures were performed in triplicate.
Then, GR191's PBL in culture medium were added to the wells to give a final concentration of 150,000 cells per well, and the plates were incubated at 37° C., 5% CO2 for 24 hours. After this incubation, PHA was added to give final concentrations of 2 μg/ml and 5 μg/ml, final total volume of 200 μl/well, and the cells were incubated for an additional 72 hours at 37° C., 5% CO2. All cultures were performed in triplicate.

[2] = tested on: IL-13; assay: IL-13 release by PBL (ELISA); type: cell-based, human; settings: for IL-13 release induced by PHA: Example 2, GR467 PBL, 15 μg/ml Cpd II, 15 μg/ml MP, 10 μM Dex, PHA 2 μg/ml, 96 hours, FIG. 3
Experimental: After this incubation, PHA was added to give a final concentration of 2 μg/ml, and the cells were incubated for an additional 96 hours at 37° C., 5% CO2. All cultures were performed in triplicate. Cells were then removed by centrifugation at 1000 rpm for 10 minutes, and the culture medium collected.
Release of IL-13 and interferon gamma (IFNγ) into the culture medium was measured by ELISA. To perform the ELISA, matched pairs of antibodies against human IL-13 and IFNγ were purchased from Pierce Biotechnology and Biosource, respectively. ELISA strip well plates were coated with 10 μg/ml of antibody (in phosphate-buffered saline (PBS)) to IL-13 and 4 μg/ml of antibody to IFNγ (in PBS) overnight at room temperature. The plates were then blocked using a 4% BSA solution in PBS for one hour, followed by the addition of 50 μl of experimental culture medium per well in duplicate. The plates were incubated at room temperature for one hour and then washed using 50 mM Tris pH 8.0 with 0.1% Tween 20. Then, solutions of 400 ng/ml biotinylated second antibody to IL-13 and 500 ng/ml biotinylated second antibody to IFNγ were made in blocking buffer, and 100 μl were added per well. The plates were incubated for 1 hour and washed again. A 1:8000 dilution of Strepavidin HRP (Pierce Biotechnology) conjugate was made in blocking buffer, and 100 μl were added to the wells and incubation continued for 30 minutes. A final wash step was performed, after which 100 μl Pierce Biotechnology TMB substrate were added to each well. Color was developed for 30 minutes and stopped by adding 100 μl 0.18 NH2SO4. OD was determined using microplate reader with a 450 nm filter.
After this incubation, PHA was added to give a final concentration of 5 μg/ml, and the cells were incubated for an additional 72 hours at 37° C., 5% CO2. All cultures were performed in triplicate. Cells were then removed by centrifugation at 1000 rpm for 10 minutes.
The supernatants were collected, and the concentrations of IL-13 and tumor necrosis factor alpha (TNFα) in the supernatants were measured by ELISA. The IL-13 ELISA was performed as described in Example 2.

[3] = tested on: human umbilical vein endothelial cells (HUVECs); assay: HUVEC tube formation assay; type: cell-based; settings: 18 hours, 5% FCS, 30 μg Cpd II or MP in 1 ml, LY 294002 50 μM
Experimental: Passage 4 (i.e., […]) human umbilical vein endothelial cells (HUVECs), human source lot number 9713 (obtained from ATCC) in 1 ml of endothelial growth medium-2 (EGM-2) (obtained from Cambrex) were mixed with 30 μg of the compound of formula II (Cpd II) in endothelial basal medium-2 (EBM-2) (Cambrex) or 30 μg methylphenidate (MP) in EBM-2. Water (vehicle for the two test compounds) was used as a control, and the PI3 kinase inhibitor, LY 294002 (Sigma), at 50 μM, was included as a positive control. Then, the cells were seeded at 10,000 cells/well into the wells of a plate contained in a tube formation assay kit obtained from BD Biosciences, Rockville, Md. The wells of the plate contained an extracellular matrix protein gel. Fetal calf serum (FCS) (ATCC) was added to a final concentration of 5% to initiate tube formation. Then, the plates were incubated for 18 hours at 37° C. and 5% CO2. Following the incubation, the plates were photographed with a digital camera attached to an inverted microscope (Olympus IMT-2 set at a phase contrast (PC) of 10).
When endothelial cells are cultured on extracellular matrix protein gels in the presence of angiogenic signals, they arrange themselves into structures loosely resembling capillary blood vessels. […]

[4] = Cpd II and MP 5, 15, 50 μg/ml, Dex 10 μg/ml, PHA 2, 5, 20 μg/ml, FIGS. 1A-C
[5] = Example 2, donor GR467, Cpd II 5, 15, 25 μg/ml, MP 15 μg/ml, PHA 2 μg/ml, FIG. 2
[6] = Example 3, donor GR191, Cpd II 5, 15, 25, 50 μg/ml, MP 50 μg/ml, PHA 2 and 5 μg/ml, FIGS. 5A-B

SMILES | proliferation of PBL stimulated with PHA (OD at 530 nm) [1, 4] | proliferation of PBL, both unstimulated and stimulated with PHA (OD at 530 nm) [1, 5] | proliferation of PBL, both unstimulated and stimulated with PHA (OD at 530 nm) [1, 6] | IL-13 release induced by PHA [2] | release of IL-13 from PHA-stimulated PBL ([2]; Example 3, GR191 PBL, Cpd II 15 and 50 μg/ml, Dex 10 μM, PHA 5 μg/ml, 72 hours, FIG. 6) | tube formation (branching and cellular interaction of endothelial cells) [3] | proliferation of PBL stimulated with PHA (OD at 530 nm) ([1]; highest MP dose (50 μg/ml) and lowest PHA dose (2 μg/ml)) | IL-13 release induced by PHA ([2]; listed as Methylphenidate)
COC(=O)C(c1ccc(-c2ccccc2)cc1)C1CCCCN1 (stereo not shown) [Cpd II] | significantly inhibited the proliferation of PBL stimulated with PHA in a dose-dependent manner | significantly inhibited the proliferation of PBL | significantly inhibited the proliferation of PBL | significantly inhibited IL-13 release | significantly inhibited the release of IL-13 | reduced the amount of branching and cellular interaction |  | 
COC(=O)C(c1ccccc1)C1CCCCN1 (stereo not shown) [methylphenidate] | did not significantly reduce the proliferation | did not | did not | increased the release of IL-13 |  | no observable effect | showed a significant effect | did not inhibit the release of IL-13
